Experimental data as given in patent US5137720A, “Antiviral combination, and method of treatment” (Ciba-Geigy Corporation, priority 1988, dated 1992).

How the values were obtained:
[1] = tested on: rat alveolar macrophages; experiment: In vitro alveolar macrophage-mediated cytotoxicity against MADB-200 tumor cells (crystal violet); assay type: cell-based; conditions: interferon 0
Experimental: Macrophage-mediated cytotoxicity was assessed against syngeneic MADB-200 adenocarcinoma target cells available from the American Type Culture Collection, ATCC. These cells were maintained as monolayer cultures in MEM supplemented with 10% fetal calf serum. Cultures were maintained at 37° C. in a humidified atmosphere containing 5% CO2. Cultures were routinely tested for the presence of mycoplasma.
Alveolar macrophages (AM) were collected by transtracheal lavage (Brownbill and Schumann, Cancer Immunol. Immunother. 20, 11-17, 1985). The cells recovered from lavage fluids were centrifuged at 400× g for 10 minutes, suspended in serum-free medium, and plated into 96-well Microtest II plastic tissue culture dishes at 5×10^4 cells per well. After incubation for 60 minutes, cells were washed with HBSS to remove non-adherent […].
Purified cultures of rat alveolar macrophages were incubated at 37° C. for 1 hour with 0.2 ml of control medium, recombinant alpha B1 D2 B3 B4, MTP-PE, or a combination of alpha B1 D2 B3 B4 and MTP-PE. To these treated cells, 5×10^3 MADB-200 tumor cells were added and allowed to incubate for 72 hours at 37° C. Thus, 50,000 macrophages were incubated with 5000 tumor cells.
A colorimetric assay using crystal violet staining of remaining MADB-200 tumor cells was used to determine macrophage cytotoxicity (Brownbill and Schumann, Cancer Immunol. Immunother. 20, 11-17, 1985). Briefly, following incubation, wells are washed with HBSS and the remaining cells fixed with formalin and stained with crystal violet. Each well is thoroughly washed after staining, the cells decolorized with alcohol, and the extract read with a colorimeter. The % cytotoxic activity of alveolar macrophages was calculated as follows: [formula]

[2] = tested on: HSV-2/MS; experiment: Herpes genitalis in the guinea pig, local lesion scores; assay type: in vivo, guinea pigs of the Pirbright strain
Experimental: Female albino guinea-pigs of the Pirbright strain, weighing 200-300 g, are infected intravaginally after gentle opening of the introitus vaginae with a forceps. Thereafter, pieces of fibrin foam (SEVAC, Prague) measuring 5×5×4 mm are impregnated with 0.05 ml containing about 10^4 PFU of HSV 2/MS from cultures in HEL. These pieces are introduced intravaginally (1-2). The animals are kept in groups of 4-5 in type 4 Macrolon cages.
Three days after infection, by which time the local symptomatology scores (see below) range from 3 to 6 in about 90% of the animals, these animals are divided at random into groups of 10-15 per preparation and untreated control. Treatment is started 72 hours after infection and administered twice daily for 5 days. One tenth of a milliliter is applied intravaginally and 0.1 ml extravaginally.
From the 3rd day onwards, the local symptoms are evaluated thrice weekly. The criteria applied in assessing the therapeutic effects of treatment are the rate and the degree of regression of overt signs of infection in the individual animals. The degree and severity of local symptoms are scored according to the following points system:
The number indicated in the following Table of female albino guinea pigs of the Pirbright strain (150-180 g body weight) are infected intravaginally with ~10^4 PFU (plaque-forming units) of herpes simplex type 2 virus, cultivated in HEL (human embryonal lungs) cells, as described in B. Lukas et al., Arch. ges. Virusforsch. 44, 153-155 (1974).
Beginning 72 h after infection, animals are treated intravaginally twice a day for 5 days with 0.2 ml of a gel containing one of the following: i) alpha interferon B1 D2 B3 B4 at 1.5×10^6 units/kg; ii) Liposome-encapsulated MTP-PE at 1 mg/kg and iii) a mixture of both. Guinea pigs receiving placebo treatment are given a gel without active ingredients.

[3] = Body distribution of liposomes following i.v. administration; assay type: in vivo; conditions: rodents
Experimental: Alpha interferon is diluted in calcium and magnesium free PBS, and 2.5 ml is used to reconstitute 250 mg lyophilized synthetic lipids (POPC/OOPS, 7:3 molar ratio) containing 1 mg MTP-PE. This mixture is vigorously shaken in a Vortex mixer for 2 minutes and allowed to stand for 30 minutes prior to revortexing and the addition of another 2.5 ml of PBS. It is found (using I^125 labelled alpha interferon) that approximately 20% of the interferon is bound to liposomes following this reconstitution procedure. Liposomes prepared in this manner have the same physical properties as liposomes containing only MTP-PE and appear to follow the same body distribution profile following i.v. administration in rodents. Approximately 2-3 times more MTP-PE and interferon reach the lung when both substances are incorporated into liposomes as compared to unencapsulated forms.

Structure (SMILES): CCCCCCCCCCCCCCCC(=O)OC[C@H](COP(=O)([O-])OCCNC(=O)[C@H](C)NC(=O)CC[C@@H](NC(=O)[C@H](C)NC(=O)[C@@H](C)O[C@H]1[C@H](O)[C@@H](CO)O[C@@H](O)[C@@H]1NC(C)=O)C(N)=O)OC(=O)CCCCCCCCCCCCCCC.[Na+] [MTP-PE, N-acetyl-muramyl-L-alanyl-D-isoglutaminyl-L-alanine-2-(1,2-di-palmitoyl-sn-glycero-3-hydroxyphosphoryloxy)-ethylamide-sodium salt]
- % Cytotoxicity ([1]; MTP-PE alone 0.01 μg/ml): 0%
- % Cytotoxicity ([1]; MTP-PE alone 0.03 μg/ml): 7%
- % Cytotoxicity ([1]; MTP-PE alone 0.1 μg/ml): 10%
- Mean Lesion Score ± Standard Error ([2]; day 3 after infection (start of treatment), gel intravaginally twice a day for 5 days, interferon 1.5×10^6 units/kg, liposome-encapsulated MTP-PE 1 mg/kg): 1.9 ± 0.23
- Mean Lesion Score ± Standard Error ([2]; day 5 after infection, same treatment): 2.8 ± 1.15
- Mean Lesion Score ± Standard Error ([2]; day 7 after infection, same treatment): 4.3 ± 1.32
- Mean Lesion Score ± Standard Error ([2]; day 10 after infection, same treatment): 4.0 ± 1.93
- Mean Lesion Score ± Standard Error ([2]; day 12 after infection, same treatment): 4.3 ± 1.42
- Mean Lesion Score ± Standard Error ([2]; day 14 after infection, same treatment): 4.3 ± 1.42
- Mean Lesion Score ± Standard Error ([2]; day 17 after infection, same treatment): 3.0 ± 1.60
- amount reaching the lung, both substances incorporated into liposomes as compared to unencapsulated forms [3]: 2-3 times
